Measurements published in US20170151295A1, “USE OF CHI-JU-DI-HUANG-WAN IN TREATING RETINAL ISCHEMIA OR A DISEASE, CONDITION, OR DISORDER ASSOCIATED WITH RETINAL ISCHEMIA” (priority 2015, published 2017).

Columns and labels:
Assay type in all cases: in vivo, Wistar rats
MMP-9 [1] = assay: Gel zymography, retinal MMP-9 activity after I/R; settings: intravitreal 2 nmole 15 min before ischemia, 24 h after ischemia
P-p38 MAPK = assay: Western blotting, retinal P-p38 MAPK after I/R; settings: intravitreal 2 nmole 15 min before ischemia, I/R 24 h
Protocol: Intravitreal injections were performed using a 30-gauge needle attached to a 25 μl syringe after pupil dilation with 1% tropicamide and 2.5% phenylephrine. In certain instances, intravitreal injections of 4 μl of 2 nmole SB203580 (Calbiochem, San Diego, Calif.) or vehicle (an equal volume of DMSO) were performed on ischemic eyes fifteen minutes before pressure-induced retinal ischemia.
One day following retinal ischemia with preadministration of relevant compounds or following a sham procedure, the animals were sacrificed. Retinal samples were retrieved and sonicated in a lysis buffer, mammalian protein extraction reagent (Pierce, Ill.).

MMP-9 [2] = assay: Western blotting, retinal MMP-9 after I/R; settings: intravitreal 2 nmole 15 min before ischemia, I/R 24 h

For `C[S+]([O-])c1ccc(-c2nc(-c3ccncc3)c(-c3ccc(F)cc3)[nH]2)cc1` (stereo not drawn) [SB203580], the “MMP-9/β-actin (gel zymography, MMP-9 activity)” value (MMP-9 [1]) was 1.49 ± 0.21, the P-p38/β-actin protein ratio (P-p38 MAPK) was 0.23 ± 0.05 and the “MMP-9/β-actin protein ratio (Western blotting)” value (MMP-9 [2]) was 0.31 ± 0.10.
